Assay results taken from publication PMC11845761, “Intestinal human carboxylesterase 2 (CES2) expression rescues drug metabolism and most metabolic syndrome phenotypes in global Ces2 cluster knockout mice” (Acta Pharmacologica Sinica, 2024).
Marks after values point to notes of the source that are not given here.

Legend:
[1] = Tissue concentrations of vinorelbine and deacetylvinorelbine 4 h after oral vinorelbine in CES2-modified mice; assay type: in vivo, mouse; conditions: oral vinorelbine 10 mg/kg
Procedure: (§1) For capecitabine 2-h experiments, 6–7 female mice received oral capecitabine (500 mg/kg, 10 μL/g), and tail vein blood samples were collected at 0.125, 0.25, 0.5 and 1 h after drug administration. For the vinorelbine 4-h experiment, 6-7 male mice received vinorelbine intravenously (10 mg/kg, 5 μL/g) or orally (10 mg/kg, 10 μL/g) using a blunt-ended needle. Tail vein blood samples were collected at 0.125, 0.25, 0.5, 1 and 2 h after drug administration. […] At the last time point in each experiment (2 or 4 h), mice were anesthetized with 5% isoflurane and blood was collected by cardiac puncture. […] Plasma was isolated from the blood by centrifugation at 9000 × g for 6 min at 4 °C, and the plasma fraction was collected and stored at −30 °C until analysis.
(§2) Concentrations of capecitabine (and its metabolites) and vinorelbine (and its metabolite) in mouse plasma samples and organ homogenates were determined using two independent validated high-performance liquid chromatography-tandem mass spectrometry assays.
(§3) Pharmacokinetic parameters were calculated by non-compartmental methods using the PK solver software. […] Differences were considered statistically significant when P < 0.05. All data are presented as mean ± SD.

[2] = Tissue concentrations of vinorelbine and deacetylvinorelbine 4 h after i.v. vinorelbine in CES2-modified mice; assay type: in vivo, mouse; conditions: i.v. vinorelbine 10 mg/kg
Procedure: as §1, §2, §3

[3] = design: method as in PMID 11822766; conditions: 24 patients; oral vinorelbine 80 mg/m^2; cited from earlier work

Structure (SMILES): CCC1=C[C@@H]2CN(C1)Cc1c([nH]c3ccccc13)[C@@](C(=O)OC)(c1cc3c(cc1OC)N(C)[C@H]1[C@@](O)(C(=O)OC)[C@H](O)[C@]4(CC)C=CCN5CC[C@]31[C@@H]54)C2 [Deacetylvinorelbine, 4’-O-deacetylvinorelbine]
- Ccolon (colon concentration) ([1]; male Ces2^–/–V mice): 8.1 ± 4.8 ng/g
- Cliver (liver concentration) ([1]; male Ces2^–/–V mice): 178 ± 110 ng/g
- Colon Ratio (x 10^-3) (deacetylvinorelbine /vinorelbine) ([1]; male Ces2^–/–V mice): 13 ± 3.7 x 10^-3
- Liver Ratio (x 10^-3) (deacetylvinorelbine /vinorelbine) ([1]; male Ces2^–/–V mice): 21 ± 7.8 x 10^-3
- Small intestine Ratio (x 10^-3) (deacetylvinorelbine /vinorelbine) ([1]; male Ces2^–/–V mice): 49 ± 15 x 10^-3
- Small intestine contents Ratio (x 10^-3) (deacetylvinorelbine /vinorelbine) ([1]; male Ces2^–/–V mice): 8.4 ± 3.4 x 10^-3
- liver deacetylvinorelbine-to-vinorelbine ratio, fold decrease vs wild-type ([1]; male Ces2^–/–V mice): 238 fold
- small intestine tissue deacetylvinorelbine-to-vinorelbine ratio ([1]; male Ces2^–/–V mice): 0.049 ± 0.015
- CSI (small intestine tissue concentration) ([1]; male wild-type mice): 9590 ± 4337 ng/g
- CSIC (small intestine contents concentration) ([1]; male wild-type mice): 15491 ± 4320 ng/g
- Ccolon (colon concentration) ([1]; male wild-type mice): 369 ± 240 ng/g
- Cliver (liver concentration) ([1]; male wild-type mice): 7589 ± 2725 ng/g
- Colon Ratio (x 10^-3) (deacetylvinorelbine /vinorelbine) ([1]; male wild-type mice): 1000 ± 390 x 10^-3
- Liver Ratio (x 10^-3) (deacetylvinorelbine /vinorelbine) ([1]; male wild-type mice): 5000 ± 1000 x 10^-3
- Small intestine Ratio (x 10^-3) (deacetylvinorelbine /vinorelbine) ([1]; male wild-type mice): 880 ± 220 x 10^-3
- Small intestine contents Ratio (x 10^-3) (deacetylvinorelbine /vinorelbine) ([1]; male wild-type mice): 220 ± 73 x 10^-3
- liver deacetylvinorelbine-to-vinorelbine ratio ([1]; male wild-type mice): 5.0 ± 1.0
- small intestine tissue deacetylvinorelbine-to-vinorelbine ratio ([1]; male wild-type mice): 0.88 ± 0.22
- CSI (small intestine tissue concentration) ([2]; male Ces2^–/– mice): 87 ± 15 ng/g
- CSIC (small intestine contents concentration) ([2]; male Ces2^–/– mice): 291 ± 180 ng/g
- Ccolon (colon concentration) ([2]; male Ces2^–/– mice): 58 ± 45 ng/g
- Cliver (liver concentration) ([2]; male Ces2^–/– mice): 487 ± 127 ng/g
- Colon Ratio (x 10^-3) (deacetylvinorelbine /vinorelbine) ([2]; male Ces2^–/– mice): 9.4 ± 3.8 x 10^-3
- Liver Ratio (x 10^-3) (deacetylvinorelbine /vinorelbine) ([2]; male Ces2^–/– mice): 21 ± 1.9 x 10^-3
- Small intestine Ratio (x 10^-3) (deacetylvinorelbine /vinorelbine) ([2]; male Ces2^–/– mice): 15 ± 1.2 x 10^-3
- Small intestine contents Ratio (x 10^-3) (deacetylvinorelbine /vinorelbine) ([2]; male Ces2^–/– mice): 7.4 ± 1.0 x 10^-3
- liver deacetylvinorelbine-to-vinorelbine ratio ([2]; male Ces2^–/– mice): 0.021 ± 0.002
- small intestine conversion ratio (deacetylvinorelbine-to-vinorelbine) ([2]; male Ces2^–/– mice): 0.015 ± 0.001
- CSI (small intestine tissue concentration) ([2]; male Ces2^–/–A mice): 79 ± 13 ng/g
- CSIC (small intestine contents concentration) ([2]; male Ces2^–/–A mice): 400 ± 315 ng/g
- Ccolon (colon concentration) ([2]; male Ces2^–/–A mice): 42 ± 43 ng/g
- Cliver (liver concentration) ([2]; male Ces2^–/–A mice): 584 ± 157 ng/g
- Colon Ratio (x 10^-3) (deacetylvinorelbine /vinorelbine) ([2]; male Ces2^–/–A mice): 7.0 ± 3.7 x 10^-3
- Liver Ratio (x 10^-3) (deacetylvinorelbine /vinorelbine) ([2]; male Ces2^–/–A mice): 25± 7.0 x 10^-3
- Small intestine Ratio (x 10^-3) (deacetylvinorelbine /vinorelbine) ([2]; male Ces2^–/–A mice): 14 ± 1.0 x 10^-3
- Small intestine contents Ratio (x 10^-3) (deacetylvinorelbine /vinorelbine) ([2]; male Ces2^–/–A mice): 8.1 ± 1.1 x 10^-3
- liver deacetylvinorelbine-to-vinorelbine ratio ([2]; male Ces2^–/–A mice): 0.025 ± 0.0070
- small intestine conversion ratio (deacetylvinorelbine-to-vinorelbine) ([2]; male Ces2^–/–A mice): 0.014 ± 0.001
- CSI (small intestine tissue concentration) ([2]; male Ces2^–/–V mice): 134 ± 47***^ ng/g
- CSIC (small intestine contents concentration) ([2]; male Ces2^–/–V mice): 511 ± 322 ng/g
- Ccolon (colon concentration) ([2]; male Ces2^–/–V mice): 120 ± 45***^ ng/g
- Cliver (liver concentration) ([2]; male Ces2^–/–V mice): 513 ± 61 ng/g
- Colon Ratio (x 10^-3) (deacetylvinorelbine /vinorelbine) ([2]; male Ces2^–/–V mice): 17 ± 4.7***^^ x 10^-3
- Liver Ratio (x 10^-3) (deacetylvinorelbine /vinorelbine) ([2]; male Ces2^–/–V mice): 22 ± 6.6 x 10^-3
- Small intestine Ratio (x 10^-3) (deacetylvinorelbine /vinorelbine) ([2]; male Ces2^–/–V mice): 17 ± 2.2***^^ x 10^-3
- Small intestine contents Ratio (x 10^-3) (deacetylvinorelbine /vinorelbine) ([2]; male Ces2^–/–V mice): 10 ± 1.0 x 10^-3
- liver deacetylvinorelbine-to-vinorelbine ratio ([2]; male Ces2^–/–V mice): 0.022 ± 0.007
- small intestine conversion ratio (deacetylvinorelbine-to-vinorelbine) ([2]; male Ces2^–/–V mice): 0.017 ± 0.002
- CSI (small intestine tissue concentration) ([2]; male wild-type mice): 2214 ± 605 ng/g
- CSIC (small intestine contents concentration) ([2]; male wild-type mice): 27594 ± 13421 ng/g
- Ccolon (colon concentration) ([2]; male wild-type mice): 780 ± 199 ng/g
- Cliver (liver concentration) ([2]; male wild-type mice): 26773 ± 10517 ng/g
- Colon Ratio (x 10^-3) (deacetylvinorelbine /vinorelbine) ([2]; male wild-type mice): 340 ± 70 x 10^-3
- Liver Ratio (x 10^-3) (deacetylvinorelbine /vinorelbine) ([2]; male wild-type mice): 2500 ± 1300 x 10^-3
- Small intestine Ratio (x 10^-3) (deacetylvinorelbine /vinorelbine) ([2]; male wild-type mice): 630 ± 46 x 10^-3
- Small intestine contents Ratio (x 10^-3) (deacetylvinorelbine /vinorelbine) ([2]; male wild-type mice): 1000 ± 270 x 10^-3
- liver deacetylvinorelbine-to-vinorelbine ratio ([2]; male wild-type mice): 2.5 ± 1.3
- small intestine conversion ratio (deacetylvinorelbine-to-vinorelbine) ([2]; male wild-type mice): 0.63 ± 0.05
- plasma Cmax [3]: 9.1 ± 3.3 ng/mL
